Test results: patent US12668600B2 (Kumquat Biosciences Inc., priority 2023, dated 2026)

Columns and labels:
Format in all cases: biochemical
KRAS G12D = target: T1, KRAS G12D (Homo sapiens, UniProt P01116, G12D); experiment: HTRF KRAS-SOS1 interaction assay, KRAS G12D; details: binned ≤2 μM / >2 μM, read-out: Inhibition of KRAS G12D (IC50)
T1 construct: made in house; host or cells: E. coli, e.g. BL21 (DE3)
How it was run: (§1)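 Read-out: HTRF ratio 665/620 nm after ≥10 min incubation of compound with GST-KRAS/anti-GST-Eu and His-hSOS1/anti-6His-XL665. Duplicate dose series, 10 μM down to 0.01 μM. Buffer HEPES pH 7.4, NaCl, DTT, BSA, Igepal.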

KRAS WT = target: T2, KRAS WT (Homo sapiens, UniProt P01116); experiment: HTRF KRAS-SOS1 interaction assay, wildtype KRAS; details: binned ≤2 μM / >2 μM, read-out: Inhibition of KRAS WT (IC50)
T2 construct: made in house; host or cells: E. coli, e.g. BL21 (DE3)
How it was run: as §1

KRAS G12V = target: T3, KRAS G12V (Homo sapiens, UniProt P01116, G12V); experiment: HTRF KRAS-SOS1 interaction assay, KRAS G12V; details: binned ≤2 μM / >2 μM, read-out: Inhibition of KRAS G12V (IC50)
T3 construct: made in house; host or cells: E. coli, e.g. BL21 (DE3)
How it was run: as §1

KRAS G12S = target: T4, KRAS G12S (Homo sapiens, UniProt P01116, G12S); experiment: HTRF KRAS-SOS1 interaction assay, KRAS G12S; details: binned ≤2 μM / >2 μM, read-out: Inhibition of KRAS G12S (IC50)
T4 construct: made in house; host or cells: E. coli, e.g. BL21 (DE3)
How it was run: as §1

Measured: IC50

T3 sequence (P01116 1-188 isoform P01116-2 G12V): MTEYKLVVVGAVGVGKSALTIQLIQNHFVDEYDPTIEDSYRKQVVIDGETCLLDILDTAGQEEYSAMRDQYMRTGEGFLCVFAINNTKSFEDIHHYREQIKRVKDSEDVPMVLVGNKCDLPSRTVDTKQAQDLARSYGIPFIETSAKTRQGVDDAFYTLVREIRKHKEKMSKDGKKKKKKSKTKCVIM
T2 sequence (P01116 1-188 isoform P01116-2): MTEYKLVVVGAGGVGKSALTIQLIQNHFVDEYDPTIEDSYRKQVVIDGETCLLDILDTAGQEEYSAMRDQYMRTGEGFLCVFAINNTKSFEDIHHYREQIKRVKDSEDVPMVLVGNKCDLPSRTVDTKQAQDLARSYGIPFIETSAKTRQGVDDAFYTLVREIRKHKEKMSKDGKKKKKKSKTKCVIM
T1 sequence (P01116 1-188 isoform P01116-2 G12D): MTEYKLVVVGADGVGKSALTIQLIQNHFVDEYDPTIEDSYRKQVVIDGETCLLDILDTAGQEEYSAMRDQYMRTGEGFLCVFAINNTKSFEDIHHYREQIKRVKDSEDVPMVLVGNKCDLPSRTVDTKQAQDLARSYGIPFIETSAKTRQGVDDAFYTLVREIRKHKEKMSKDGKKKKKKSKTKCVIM
T4 sequence (P01116 1-188 isoform P01116-2 G12S): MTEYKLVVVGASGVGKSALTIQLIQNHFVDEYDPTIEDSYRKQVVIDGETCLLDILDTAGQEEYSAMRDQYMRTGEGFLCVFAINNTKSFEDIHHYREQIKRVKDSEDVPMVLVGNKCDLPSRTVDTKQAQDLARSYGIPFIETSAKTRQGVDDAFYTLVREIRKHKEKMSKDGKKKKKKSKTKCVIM

N#Cc1c(N)sc2c(F)ccc(-c3c(Cl)c4c5c(nc(OC[C@@]67CCCN6C[C@H](F)C7)nc5c3F)N([C@@H](c3cccnc3N)C(F)(F)F)CCO4)c12 [Compound 833, 2-amino-4-(4-((S)-1-(2-aminopyridin-3-yl)-2,2,2-trifluoroethyl)-8-chloro-10-fluoro-2-(((2R,7aS)-2-fluorotetrahydro-1H-pyrrolizin-7a(5H)-yl)methoxy)-5,6-dihydro-4H-[1,4]oxazepino[5,6,7-de]quinazolin-9-yl)-7-fluorobenzo[b]thiophene-3-carbonitrile]
≤ 2000 nM: all assays above

N#Cc1c(N)sc2c(F)ccc(-c3c(Cl)c4c5c(nc(OC[C@@]67CCCN6C[C@H](F)C7)nc5c3F)N([C@H](/C=C/C(F)F)c3cccnc3N)CCO4)c12 [Compound 731, 2-amino-4-(4-((R,E)-1-(2-aminopyridin-3-yl)-4,4-difluorobut-2-en-1-yl)-8-chloro-10-fluoro-2-(((2R,7aS)-2-fluorotetrahydro-1H-pyrrolizin-7a(5H)-yl)methoxy)-5,6-dihydro-4H-[1,4]oxazepino[5,6,7-de]quinazolin-9-yl)-7-fluorobenzo[b]thiophene-3-carbonitrile]
≤ 2000 nM: all assays above

C/C=C/[C@H](c1cccnc1N)N1CCOc2c(Cl)c(-c3ccc(F)c4sc(N)c(C#N)c34)c(F)c3nc(OC[C@@]45CCCN4C[C@H](F)C5)nc1c23 (mixture of isomers) [Compound 756, 2-amino-4-(4-((R,E)-1-(2-aminopyridin-3-yl)but-2-en-1-yl)-8-chloro-10-fluoro-2-(((2R,7aS)-2-fluorotetrahydro-1H-pyrrolizin-7a(5H)-yl)methoxy)-5,6-dihydro-4H-[1,4]oxazepino[5,6,7-de]quinazolin-9-yl)-7-fluorobenzo[b]thiophene-3-carbonitrile]
≤ 2000 nM: all assays above

C[C@H](c1cccnc1N)N1CCOc2c(C(F)(F)F)c(-c3ccc(F)c4sc(N)c(C#N)c34)c(F)c3nc(OCC4(CN5[C@H](C)COC[C@@H]5C)CC4)nc1c23 (single isomer, unassigned) [Compound 763]
≤ 2000 nM: all assays above

C[C@@H]1CN(CC2(COc3nc4c5c(c(C(F)(F)F)c(-c6ccc(F)c7sc(N)c(C#N)c67)c(F)c5n3)OCCN4[C@H](C)c3cccnc3N)CC2)CCO1 (single isomer, unassigned) [Compound 812]
≤ 2000 nM: all assays above

C=CC[C@H](c1cccnc1N)N1CCOc2c(Cl)c(-c3ccc(F)c4sc(N)c(C#N)c34)c(F)c3nc(OC[C@@]45CCCN4C[C@H](F)C5)nc1c23 (atropisomer, axis not shown; (aS)) [Compound 683, 2-amino-4-((R)-4-((R)-1-(2-aminopyridin-3-yl)but-3-en-1-yl)-8-chloro-10-fluoro-2-(((2R,7aS)-2-fluorotetrahydro-1H-pyrrolizin-7a (5H)-yl)methoxy)-5,6-dihydro-4H-[1,4]oxazepino[5,6,7-de]quinazolin-9-yl)-7-fluorobenzo[b]thiophene-3-carbonitrile]
≤ 2000 nM: all assays above

C=C1CN2CC(=C)CC2(COc2nc3c4c(c(C(F)(F)F)c(-c5ccc(F)c6sc(N)c(C#N)c56)c(F)c4n2)OCCN3[C@H](C)c2cccnc2N)C1 (single isomer, unassigned) [Compound 775]
≤ 2000 nM: all assays above

CCO/N=C(\C)CCC[C@H](c1cccnc1N)N1CCOc2c(C(F)(F)F)c(-c3ccc(F)c4sc(N)c(C#N)c34)c(F)c3nc(OC[C@@]45CCCN4C[C@H](F)C5)nc1c23 [Compound 854, 2-amino-4-(4-((R,E)-1-(2-aminopyridin-3-yl)-5-(ethoxyimino)hexyl)-10-fluoro-2-(((2R,7aS)-2-fluorotetrahydro-1H-pyrrolizin-7a(5H)-yl)methoxy)-8-(trifluoromethyl)-5,6-dihydro-4H-[1,4]oxazepino[5,6,7-de]quinazolin-9-yl)-7-fluorobenzo[b]thiophene-3-carbonitrile]
≤ 2000 nM: all assays above

CC(=O)c1c(F)ccc2cc(O)cc(-c3nc4c5c(nc(OC[C@@H]6CCCN6C)nc5c3F)N(C(C)c3cccnc3N)CCO4)c12 (mixture of isomers) [Compound 801, 1-(8-(10-(1-(2-aminopyridin-3-yl)ethyl)-4-fluoro-2-(((S)-1-methylpyrrolidin-2-yl)methoxy)-9,10-dihydro-8H-7-oxa-1,3,6,10-tetraazacyclohepta[de]naphthalen-5-yl)-2-fluoro-6-hydroxynaphthalen-1-yl)ethan-1-one]
≤ 2000 nM: all assays above

CO[C@H]1CCN(C)[C@@H]1[C@H](C)Oc1nc2c3c(c(C(F)(F)F)c(-c4ccc(F)c5sc(N)c(C#N)c45)c(F)c3n1)OCCN2[C@H](C)c1cc(Cl)cnc1N [Compound 667, 2-amino-4-(4-((R)-1-(2-amino-5-chloropyridin-3-yl)ethyl)-10-fluoro-2-((S)-1-((2R,3S)-3-methoxy-1-methylpyrrolidin-2-yl)ethoxy)-8-(trifluoromethyl)-5,6-dihydro-4H-[1,4]oxazepino[5,6,7-de]quinazolin-9-yl)-7-fluorobenzo[b]thiophene-3-carbonitrile]
≤ 2000 nM: all assays above

C#CC(F)(F)[C@H](c1cccnc1N)N1CCOc2c(Cl)c(-c3ccc(F)c4sc(N)c(C#N)c34)c(F)c3nc(OC[C@@]45CCCN4C[C@H](F)C5)nc1c23 [Compound 867, 2-amino-4-(4-((S)-1-(2-aminopyridin-3-yl)-2,2-difluorobut-3-yn-1-yl)-8-chloro-10-fluoro-2-(((2R,7aS)-2-fluorotetrahydro-1H-pyrrolizin-7a(5H)-yl)methoxy)-5,6-dihydro-4H-[1,4]oxazepino[5,6,7-de]quinazolin-9-yl)-7-fluorobenzo[b]thiophene-3-carbonitrile]
≤ 2000 nM: all assays above

CC(=O)c1c(F)ccc2cc(O)cc(-c3nc4c5c(nc(OC[C@@]67CCCN6C[C@H](F)C7)nc5c3F)N(C(C)c3cccnc3N)CCO4)c12 (mixture of isomers) [Compound 744]
≤ 2000 nM: all assays above

CCO/N=C/C1CN2CCC[C@@]2(COc2nc3c4c(c(Cl)c(-c5ccc(F)c6sc(N)c(C#N)c56)c(F)c4n2)OCCN3[C@H](C)c2cccnc2N)C1 (mixture of isomers) [Compound 711, 2-amino-4-(4-((R)-1-(2-aminopyridin-3-yl)ethyl)-8-chloro-2-(((7aS)-2-((E)-(ethoxyimino)methyl)tetrahydro-1H-pyrrolizin-7a(5H)-yl)methoxy)-10-fluoro-5,6-dihydro-4H-[1,4]oxazepino[5,6,7-de]quinazolin-9-yl)-7-fluorobenzo[b]thiophene-3-carbonitrile]
≤ 2000 nM: all assays above

Cc1c(F)c(N)cc(-c2nc3c4c(nc(OC[C@@]56CCCN5C[C@H](F)C6)nc4c2F)N([C@H](C)c2cccnc2N)CCO3)c1C(F)(F)F (single isomer, unassigned) [Compound 765]
≤ 2000 nM: all assays above

CC(=O)c1c(F)ccc2cc(O)cc(-c3nc4c5c(nc(OC[C@@H]6CCCN6C)nc5c3F)N(C(C)c3cccnc3N)CCO4)c12 (single isomer, unassigned) [Compound 750]
≤ 2000 nM: all assays above

C[C@H](c1cccnc1N)N1CCOc2c(Cl)c(-c3ccc(F)c4sc(N)c(C#N)c34)c(F)c3nc(OCC45CCCC4CCC5)nc1c23 (single isomer, unassigned) [Compound 914]
≤ 2000 nM: all assays above

CO[C@H]1CCN(C)[C@@H]1[C@H](C)Oc1nc2c3c(c(C(F)(F)F)c(-c4ccc(F)c5sc(N)c(C#N)c45)c(F)c3n1)OCCN2[C@H](C)c1cc(F)cnc1N [Compound 630, 2-amino-4-(4-((R)-1-(2-amino-5-fluoropyridin-3-yl)ethyl)-10-fluoro-2-((S)-1-((2R,3S)-3-methoxy-1-methylpyrrolidin-2-yl)ethoxy)-8-(trifluoromethyl)-5,6-dihydro-4H-[1,4]oxazepino[5,6,7-de]quinazolin-9-yl)-7-fluorobenzo[b]thiophene-3-carbonitrile]
≤ 2000 nM: all assays above

N#Cc1c(N)sc2c(F)ccc(-c3c(Cl)c4c5c(nc(OC[C@@]67CCCN6C[C@H](F)C7)nc5c3F)N(C(/C=C/F)c3cccnc3N)CCO4)c12 (single isomer, unassigned) [Compound 708]
≤ 2000 nM: all assays above
